In the supplement of paper PMC11451515:

Tested on: P12-Ichikawa
Assay: cell viability relative to DMSO control; higher = less cytotoxic
Settings: 48 h
How it was run: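 In 1536-well plates, 5 μl of leukemia cells were seeded per well: 500 cells/well for NOMO1 or SEM and 1000 cells/well for P12-Ichikawa. Each line had first been adapted for at least four passages in each medium. Library compounds in DMSO were pin-dosed at 11 threefold concentrations between 47 μM and 0.79 nM, and CellTiter-Glo One luminescence was read after 48 h at 37°C. Viability is a per-plate percentage relative to DMSO wells, with cell-free wells as background.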

[1] = HPLM + 10% dialyzed FBS, 0.000781 µM
[2] = HPLM + 10% dialyzed FBS, 0.00234 µM
[3] = HPLM + 10% dialyzed FBS, 0.00702 µM
[4] = HPLM + 10% dialyzed FBS, 0.0211 µM
[5] = HPLM + 10% dialyzed FBS, 0.0632 µM
[6] = HPLM + 10% dialyzed FBS, 0.19 µM
[7] = HPLM + 10% dialyzed FBS, 0.569 µM
[8] = HPLM + 10% dialyzed FBS, 1.71 µM
[9] = HPLM + 10% dialyzed FBS, 5.12 µM
[10] = HPLM + 10% dialyzed FBS, 15.4 µM
[11] = HPLM + 10% dialyzed FBS, 46.1 µM
[12] = RPMI 5 mM glucose + 10% FBS, 0.000781 µM
[13] = RPMI 5 mM glucose + 10% FBS, 0.00234 µM
[14] = RPMI 5 mM glucose + 10% FBS, 0.00702 µM
[15] = RPMI 5 mM glucose + 10% FBS, 0.0211 µM
[16] = RPMI 5 mM glucose + 10% FBS, 0.0632 µM
[17] = RPMI 5 mM glucose + 10% FBS, 0.19 µM
[18] = RPMI 5 mM glucose + 10% FBS, 0.569 µM
[19] = RPMI 5 mM glucose + 10% FBS, 1.71 µM
[20] = RPMI 5 mM glucose + 10% FBS, 5.12 µM
[21] = RPMI 5 mM glucose + 10% FBS, 15.4 µM
[22] = RPMI 5 mM glucose + 10% FBS, 46.1 µM
[23] = RPMI 5 mM glucose + 10% dialyzed FBS, 0.000781 µM
[24] = RPMI 5 mM glucose + 10% dialyzed FBS, 0.00234 µM
[25] = RPMI 5 mM glucose + 10% dialyzed FBS, 0.00702 µM
[26] = RPMI 5 mM glucose + 10% dialyzed FBS, 0.0211 µM
[27] = RPMI 5 mM glucose + 10% dialyzed FBS, 0.0632 µM
[28] = RPMI 5 mM glucose + 10% dialyzed FBS, 0.19 µM
[29] = RPMI 5 mM glucose + 10% dialyzed FBS, 0.569 µM
[30] = RPMI 5 mM glucose + 10% dialyzed FBS, 1.71 µM
[31] = RPMI 5 mM glucose + 10% dialyzed FBS, 5.12 µM
[32] = RPMI 5 mM glucose + 10% dialyzed FBS, 15.4 µM
[33] = RPMI 5 mM glucose + 10% dialyzed FBS, 46.1 µM

Row | Structure (SMILES) | cell viability [1] | cell viability [2] | cell viability [3] | cell viability [4] | cell viability [5] | cell viability [6] | cell viability [7] | cell viability [8] | cell viability [9] | cell viability [10] | cell viability [11] | cell viability [12] | cell viability [13] | cell viability [14] | cell viability [15] | cell viability [16] | cell viability [17] | cell viability [18] | cell viability [19] | cell viability [20] | cell viability [21] | cell viability [22] | cell viability [23] | cell viability [24] | cell viability [25] | cell viability [26] | cell viability [27] | cell viability [28] | cell viability [29] | cell viability [30] | cell viability [31] | cell viability [32] | cell viability [33]
1 | C[C@@H]\1CC(=O)N\N=C1C2=CC=C(NN=C(C#N)C#N)C=C2 | 91.5% | 92.9% | 94.3% | 94.4% | 95.7% | 92.8% | 93.5% | 87.5% | 91.3% | 86.3% | 29.4% | 88.1% | 93.2% | 92.2% | 89.5% | 93.9% | 92.4% | 96.7% | 91.1% | 93.4% | 81.1% | 15.6% | 81.2% | 85.7% | 88.2% | 92.3% | 92.3% | 90.9% | 91.3% | 80.1% | 83.7% | 72.9% | 12.8%
2 | COc1cc(OC)c(/C=C/[S+](=O)([O-])Cc2ccc(OC)c(NCC(=O)[O][Na])c2)c(OC)c1 | 125% | 124% | 123% | 120% | 116% | 87.5% | 18.3% | 13.2% | 12.7% | 10.1% | 9.65% | 124% | 120% | 126% | 104% | 118% | 76.9% | 23.1% | 12.5% | 11.1% | 11.4% | 10.8% | 120% | 122% | 120% | 115% | 116% | 50.1% | 24.6% | 13.8% | 12% | 11.3% | 9.89%
3 | Cn1cnc2c1c(=O)[nH]c(=O)n2C | 105% | 107% | 100% | 104% | 110% | 105% | 112% | 108% | 97.1% | 98% | 9.4% | 104% | 104% | 93.9% | 97.6% | 103% | 103% | 100% | 98.5% | 99% | 82.2% | 34.1% | 102% | 102% | 103% | 102% | 100% | 99.8% | 103% | 97.9% | 87.2% | 80.9% | 25.7%
4 | C[S+]([O-])(=O)C1=CC=C(C=C1)C/2=C(/C(=O)OC2)C3=CC=CC=C3 | 113% | 120% | 112% | 122% | 126% | 126% | 117% | 125% | 123% | 125% | 122% | 108% | 125% | 112% | 115% | 124% | 133% | 141% | 135% | 134% | 132% | 131% | 107% | 120% | 115% | 110% | 123% | 120% | 120% | 118% | 125% | 121% | 109%
5 | CCOC(=O)C/1=C(O)/C(=O)N(CC2=CC=CC=C2)C1 | 114% | 114% | 114% | 112% | 111% | 113% | 109% | 109% | 99.1% | 99.8% | 100% | 116% | 121% | 115% | 119% | 128% | 120% | 106% | 122% | 114% | 106% | 99.5% | 107% | 109% | 123% | 111% | 113% | 111% | 120% | 106% | 114% | 107% | 99.2%
6 | C=CC(=O)N1CCC[C@@H](n2nc(-c3ccc(Oc4ccccc4)cc3)c3c(N)ncnc32)C1 | 127% | 123% | 120% | 121% | 114% | 112% | 111% | 91.8% | 80.7% | 76.3% | 80.5% | – | – | – | – | – | – | – | – | – | – | – | – | – | – | – | – | – | – | – | – | – | –
7 | O=C(O)C1=NC(C(=O)O)CC(/C=C/N2c3cc(O)c(OC4OC(CO)C(O)C(O)C4O)cc3CC2C(=O)O)=C1 (stereo not given) | 104% | 107% | 104% | 96.9% | 98.5% | 104% | 106% | 102% | 96.8% | 98% | 98.4% | 97.2% | 110% | 106% | 99.1% | 95.8% | 89.9% | 90.8% | 106% | 96.5% | 96.8% | 97.4% | 101% | 99.2% | 106% | 102% | 106% | 104% | 93.2% | 99.5% | 100% | 91.9% | 90.9%
8 | CN1CCCN=C1/C=C/c1cccs1.O=C(O)c1cc2ccccc2c(Cc2c(O)c(C(=O)O)cc3ccccc23)c1O | 114% | 117% | 118% | 122% | 112% | 111% | 111% | 111% | 103% | 25% | 10.2% | 109% | 121% | 114% | 122% | 114% | 114% | 105% | 114% | 110% | 115% | 101% | 114% | 123% | 115% | 115% | 120% | 115% | 108% | 112% | 114% | 98.2% | 82.9%
9 | CC(C)NC[C@@H](C(=O)N1CCN(c2ncnc3c2[C@H](C)C[C@H]3O)CC1)c1ccc(Cl)cc1 | 118% | 120% | 114% | 109% | 100% | 99.5% | 92.8% | 83% | 67% | 48.2% | 28.1% | 109% | 105% | 111% | 107% | 100% | 85.8% | 71.3% | 65.2% | 52.8% | 44.4% | 33.6% | 112% | 109% | 114% | 115% | 103% | 95.3% | 85.2% | 78.1% | 55.5% | 37.2% | 23.5%
10 | CN(C)[C@H]\1[C@@H]2C[C@H]3C(=C(O)\[C@]2(O)C(=O)\C(=C1O)C(N)=O)/C(=O)C4=C(O)C=CC=C4[C@@]3(C)O | 113% | 115% | 114% | 115% | 113% | 116% | 114% | 111% | 114% | 108% | 93.9% | 112% | 103% | 109% | 116% | 118% | 110% | 114% | 107% | 115% | 92.8% | 98.8% | 114% | 101% | 114% | 111% | 116% | 116% | 111% | 104% | 105% | 97.5% | 97%
11 | COc1ccc(C(C)=O)c(O)c1 | 100% | 106% | 115% | 109% | 109% | 114% | 117% | 102% | 107% | 24% | 31% | 115% | 115% | 106% | 120% | 128% | 117% | 114% | 112% | 116% | 22% | 30.6% | 103% | 109% | 109% | 104% | 110% | 114% | 114% | 99.9% | 110% | 25.8% | 25.4%
12 | Cn1c(CNc2ccc(C(=N)N)cc2)nc2cc(C(=O)N(CCC(=O)O)c3ccccn3)ccc21 | 96.7% | 102% | 107% | 109% | 105% | 114% | 104% | 109% | 117% | 113% | 114% | 100% | 118% | 120% | 118% | 123% | 113% | 122% | 128% | 115% | 110% | 120% | 97.3% | 111% | 112% | 110% | 115% | 110% | 109% | 120% | 112% | 105% | 112%
13 | N=C(NCCCCCCNC(=N)NC(=N)Nc1ccc(Cl)cc1)NC(=N)Nc1ccc(Cl)cc1 | 89.4% | 95.2% | 93% | 95.7% | 92.6% | 93.3% | 95.2% | 101% | 92.9% | 97.9% | 93.8% | 83.8% | 82.8% | 92.1% | 90.1% | 93.6% | 97.6% | 91.4% | 80.2% | 95.1% | 81.2% | 56.3% | 85.4% | 85.3% | 90.4% | 86.9% | 94.1% | 95.5% | 87.5% | 88.1% | 86% | 89.3% | 70.3%
14 | CC1(C)O[C@@H]2C[C@H]3[C@@H]4CCC5=CC(=O)C=C[C@]5(C)[C@H]4[C@@H](O)C[C@]3(C)[C@]2(C(=O)CO)O1 | 100% | 104% | 106% | 91.8% | 93% | 90.2% | 70.7% | 64% | 66% | 65.2% | 62.9% | 90.3% | 100% | 107% | 106% | 82.4% | 76.3% | 59.2% | 53% | 52% | 50.4% | 51.5% | 90.2% | 98.8% | 97.8% | 92.4% | 76.6% | 72.8% | 56.6% | 49.8% | 45.4% | 40.9% | 42.1%
